The values that follow come from paper PMC12388523, “Flavonoids and Sesquiterpene Lactones from Lychnophora ericoides (Arnica-Do-Cerrado) and Their In Vitro Effects on Multiple Myeloma and Acute Myeloid Leukemia” (Metabolites, 2025).

Molecules are shown by their SMILES.

The subject of data set [1] is HS-5 cells. As to the kind of experiment: Proliferation, [3H]-thymidine uptake, non-malignant HS-5. Type of data set: cell-based. The conditions noted are these: HS5; HS-5 (non-malignant), 72 h, 95% confidence interval in brackets; read-out: IC50 inhibition of proliferation. The method, then:
(§1) Acute myeloid leukemia cell line HL-60 and multiple myeloma cell lines AMO-1 and KMS-12-PE were obtained from the German Collection of Microorganisms and Cell Cultures (DSMZ), Braunschweig, Germany, and non-tumorigenic stromal cell line HS-5 was acquired from the American Type Culture Collection (ATCC, Manassas, VA, USA). All cell lines were cultured in RPMI 1640 medium without phenol red (Pan Biotech, Aidenbach, Germany), supplemented with 2 mM glutamine, 100 U/mL penicillin, 100 µg/mL streptomycin (Sigma-Aldrich, St. Louis, MO, USA), and 10% fetal bovine serum (FBS Maximus, Catus Biotech GmbH, Tutzing, Germany) at 37 °C in a humidified atmosphere of 5% CO2/95% air. Cells were fed twice weekly. Logarithmically growing cells were resuspended at 1 × 10^5 cells/mL, plated in triplicate in round-bottom 96-well plates (100 µL per well; Falcon, Becton Dickinson, Franklin Lakes, NJ, USA), and incubated at 37 °C in 5% CO2/95% air for 2 h. […] Cell proliferation was assessed by [^3H]-thymidine uptake. […] Cells were harvested using a semi-automated device, and [^3H]-thymidine incorporation (expressed in counts per minute, cpm) was measured with a scintillation counter (MicroBeta TriLux, PerkinElmer, Waltham, MA, USA). Metabolic activity was assessed by resazurin staining. […] Relative fluorescence units (RFUs) were measured using a Synergy H1 plate reader equipped with a 560 nm excitation/590 nm emission filter set (BioTek; Agilent, Santa Clara, CA, USA). Proliferation and metabolic activity in the absence of compounds were defined as 100% (control), and the values for compound-treated samples were expressed as percentages relative to the control. Selectivity indices were calculated by dividing the IC50 value of each compound against HS-5 cells through the IC50 values against the investigated cell lines.
(§2) The Wilcoxon Rank Sum Test was used to analyze proliferation and metabolic activity in the absence and presence of varying compound concentrations (NCSS 2007 software, version 07.1.2, Kaysville, UT, USA). […] IC50 values were calculated using GraphPad Prism 10.1.2. […]

Data set [2] deals with KMS-12-PE cells. Put plainly: Metabolic activity, resazurin staining, KMS-12-PE. Type of data set: cell-based. The method, then: (§3) Acute myeloid leukemia cell line HL-60 and multiple myeloma cell lines AMO-1 and KMS-12-PE were obtained from the German Collection of Microorganisms and Cell Cultures (DSMZ), Braunschweig, Germany, and non-tumorigenic stromal cell line HS-5 was acquired from the American Type Culture Collection (ATCC, Manassas, VA, USA). All cell lines were cultured in RPMI 1640 medium without phenol red (Pan Biotech, Aidenbach, Germany), supplemented with 2 mM glutamine, 100 U/mL penicillin, 100 µg/mL streptomycin (Sigma-Aldrich, St. Louis, MO, USA), and 10% fetal bovine serum (FBS Maximus, Catus Biotech GmbH, Tutzing, Germany) at 37 °C in a humidified atmosphere of 5% CO2/95% air. Cells were fed twice weekly. Logarithmically growing cells were resuspended at 1 × 10^5 cells/mL, plated in triplicate in round-bottom 96-well plates (100 µL per well; Falcon, Becton Dickinson, Franklin Lakes, NJ, USA), and incubated at 37 °C in 5% CO2/95% air for 2 h. Subsequently, the compounds were adjusted in the cell culture medium to reach the final concentrations in a total volume of 150 µL and incubated for an additional 72 h. Cell proliferation was assessed by [^3H]-thymidine uptake. Each well was exposed to 2 µCi [^3H]-thymidine (Hartmann Analytic, Braunschweig, Germany) during the final 12–16 h of incubation. Cells were harvested using a semi-automated device, and [^3H]-thymidine incorporation (expressed in counts per minute, cpm) was measured with a scintillation counter (MicroBeta TriLux, PerkinElmer, Waltham, MA, USA). Metabolic activity was assessed by resazurin staining. Resazurin (Carl Roth, Karlsruhe, Germany) was dissolved in distilled water at a concentration of 0.1 mg/mL, and 15 µL of this solution was added to each well, followed by a 2 h incubation at 37 °C. Relative fluorescence units (RFUs) were measured using a Synergy H1 plate reader equipped with a 560 nm excitation/590 nm emission filter set (BioTek; Agilent, Santa Clara, CA, USA). Proliferation and metabolic activity in the absence of compounds were defined as 100% (control), and the values for compound-treated samples were expressed as percentages relative to the control. Selectivity indices were calculated by dividing the IC50 value of each compound against HS-5 cells through the IC50 values against the investigated cell lines.
(§4) The Wilcoxon Rank Sum Test was used to analyze proliferation and metabolic activity in the absence and presence of varying compound concentrations (NCSS 2007 software, version 07.1.2, Kaysville, UT, USA). A p-value < 0.05 was considered statistically significant. IC50 values were calculated using GraphPad Prism 10.1.2. This software reports 95% confidence intervals instead of standard errors. […] Nonetheless, the figures clearly illustrate the IC50 values due to the narrow concentration range tested.
(§5) Proliferation inhibition often leads to cell death. Therefore, the cytotoxic activity of the compounds was further evaluated using a modified 3-(4,5-dimethylthiazol-2-yl)-2,5-diphenyltetrazolium bromide (MTT) assay, the resazurin (Alamar Blue) assay. Metabolically active cells reduce the non-fluorescent dye resazurin to the fluorescent dye resorufin via mitochondrial reductase activity, which correlates with cell viability. In the first step the metabolic activity of the four isolated flavonoids was investigated, showing a dose-dependent reduction, but to a much lower extent than in the proliferation assays (Table A2). In fact, only 7,3′,4′-trimethoxymyricetin (2) inhibited the metabolic activity of all four cell lines by more than 50% at a concentration of 100 µM.
For orientation: The colour change of resazurin is a common sign of viable cells or microbes.

Data set [3] deals with KMS-12-PE cells. As to the kind of experiment: Proliferation, [3H]-thymidine uptake, KMS-12-PE. Format: cell-based. Here is the method: as §3, §4
Data set [4] has as its system myelomonocytic chicken cell line HD11-C3. Also noted: method as in PMID 23501116. The conditions noted are these: read-out: IC50 cytotoxic activity; cited from earlier work.
For another data set, the system named is NF-κB p65. On the set-up: method as in PMID 22685350. The conditions noted are these: read-out: concentration inhibiting NF-κB p65; cited from earlier work.
In data set [5] the test system is MOLM-13 cells. Put plainly: Proliferation, [3H]-thymidine uptake, MOLM-13. Type of data set: cell-based. Here is the method:
[The source words this procedure for another cell line and reports this cell line under the same test.] as §3, §4

The subject of a further data set is HL-60 cells. As to the kind of experiment: Proliferation, [3H]-thymidine uptake, HL-60. Format: cell-based. Here is the method: as §3, §4
The test system of the next data set is KB cell line. On the set-up: method as in PMID 17089326. The conditions noted are these: cited from earlier work.
In the next data set the test system is MOLM-13. Also noted: method as in PMID 29350920. To be noted: cited from earlier work.
A further data set concerns BC cell line. On the set-up: method as in PMID 17089326. To be noted: cited from earlier work.
Data set [6] concerns HS-5 cells. As to the kind of experiment: Metabolic activity, resazurin staining, non-malignant HS-5. Type of data set: cell-based. To be noted: HS5, HS-5 (non-malignant), 72 h, 95% confidence interval in brackets, read-out: IC50 inhibition of metabolic activity. The method, then:
as §1, §2

The next data set deals with CEM. On the set-up: method as in PMID 15577239. The conditions noted are these: cited from earlier work.
Data set [7] concerns c-Myb-dependent gene expression. On the set-up: method as in PMID 23501116. To be noted: read-out: IC50 inhibition of c-Myb-dependent gene expression; cited from earlier work.
For data set [8], the system named is MOLM-13 cells. Put plainly: Metabolic activity, resazurin staining, MOLM-13. Type of data set: cell-based. The method, then:
[The source words this procedure for another cell line and reports this cell line under the same test.] as §3, §4, §5

The subject of data set [9] is HL-60, MOLM-13, AMO-1, and KMS-12 PE cancer cells. As to the kind of experiment: Metabolic activity, range over the four tested cancer cell lines. Format: cell-based. The conditions noted are these: HL-60, MOLM-13, AMO-1, KMS-12 PE; read-out: IC50 inhibition of metabolic activity, range over cell lines. The method, then: as §1, with “air.” for “air. Cells were fed twice weekly. Logarithmically growing cells were resuspended at 1 × 10^5 cells/mL, plated in triplicate in round-bottom 96-well plates (100 µL per well; Falcon, Becton Dickinson, Franklin Lakes, NJ, USA), and incubated at 37 °C in 5% CO2/95% air for 2 h.”, “Selectivity indices were calculated by dividing the IC50 value of each compound against HS-5 cells through the IC50 values against the investigated cell lines.” left out

The test system is the same in data set [10]. As to the kind of experiment: Proliferation, range over the four tested cancer cell lines. Format: cell-based. To be noted: HL-60, MOLM-13, AMO-1, KMS-12 PE; read-out: IC50 inhibition of proliferation, range over cell lines. Here is the method: as §1, with “air.” for “air. Cells were fed twice weekly. Logarithmically growing cells were resuspended at 1 × 10^5 cells/mL, plated in triplicate in round-bottom 96-well plates (100 µL per well; Falcon, Becton Dickinson, Franklin Lakes, NJ, USA), and incubated at 37 °C in 5% CO2/95% air for 2 h.”, “Selectivity indices were calculated by dividing the IC50 value of each compound against HS-5 cells through the IC50 values against the investigated cell lines.” left out

On to `C=C(C)C(=O)O[C@H]1C[C@@]2(C)OC(=CC2=O)/C(CO)=C\[C@H]2OC(=O)C(=C)[C@H]12` [Compound 5, goyazensolide], for which the IC50 in the data set on HS-5 cells [1] is 2000 nM; in the data set with KMS-12-PE cells [2] (Homo sapiens, KMS-12-PE, 72 h, resazurin, 95% confidence interval in brackets, read-out: IC50 inhibition of metabolic activity), 1900 nM; in the data set with KMS-12-PE cells [3] (Homo sapiens, KMS-12-PE, 72 h, KMS-12-PE, 72 h, 95% confidence interval in brackets, read-out: IC50 inhibition of proliferation), 1500 nM; in data set [4], 10000 nM; in the data set on NF-κB p65, 3800 nM; in the data set with MOLM-13 cells [5] (Homo sapiens, MOLM-13, 72 h, 95% confidence interval in brackets, read-out: IC50 inhibition of proliferation), 1000 nM. The IC50 with HL-60 cells (Homo sapiens, HL-60, 72 h, 95% confidence interval in brackets, read-out: IC50 inhibition of proliferation) was 1100 nM; in the data set with KB cell line, less than 300 nM; in the data set with MOLM-13, 860 nM; in the data set on BC cell line, less than 300 nM; with HS-5 cells [6], 2600 nM; in the data set with CEM it was 170 nM. Further, the IC50 in data set [7] is 630 nM; with MOLM-13 cells [8] (Homo sapiens, MOLM-13, 72 h, resazurin, 95% confidence interval in brackets, read-out: IC50 inhibition of metabolic activity) it was 1000 nM; in data set [9], 1000 to 2000 nM; in data set [10], 1000 to 1600 nM. For the same compound, the “Selectivity index (metabolic activity)” value in the data set on KMS-12-PE cells [2] (IC50 HS-5 / IC50 KMS-12-PE) is given as 1.4; in the data set on MOLM-13 cells [8] (IC50 HS-5 / IC50 MOLM-13), 2.6. In addition, the results for the “Selectivity index (proliferation)” value in the data set on KMS-12-PE cells [3] (IC50 HS-5 / IC50 KMS-12-PE), in the data set with MOLM-13 cells [5] (IC50 HS-5 / IC50 MOLM-13) and in the data set with HL-60 cells (IC50 HS-5 / IC50 HL-60) were 1.3, 2.0 and 1.8, respectively.
